Data on 11 substances can be found in article PMC3498381, “Isolated Toll-like Receptor Transmembrane Domains Are Capable of Oligomerization” (PLoS ONE, 2012).

No end group written: not given here.

In experiment [1] the test system is TLR6 TMD (functional ToxR chimera). The experiment is described as follows: Dominant-negative (heterotypic) ToxR assay, TLR6 as dominant phenotype. In kind it is cell-based, E. coli. Particulars: Miller units normalized to poly-Leu* = 1 and corrected for expression, lower = stronger interaction, N in table. The text has this: (§1) Next, we investigated heterotypic interactions of the TLRs. We specifically studied TLR2, TLR1, and TLR6 because they are cell surface expressed receptors known to form functional heterodimers. To determine the ability of these three cell surface TLRs to have heterotypic interactions within its family, we studied the ability of the TLR1, TLR2, and TLR6 TMDs to interact with the TLR receptors also expressed at the cell surface; namely, TLR1, TLR2, TLR4, TLR5, TLR6, and TLR10. We monitored these interactions using a dominant-negative ToxR assay (Fig. S1B) which works by having a second TMD expressed with a non-functional ToxR* intracellular domain. This ToxR* domain is incapable of binding the ctx promoter making any interactions with this second expressed TMD unable to produce the reporter enzyme. As such, any interaction between the functional ToxR and non-functional ToxR* TMDs will result in a reduction in signal output.
(§2) Figure 3 Cell- Surface Toll-like Recptor Heterotypic Interactions. (A) A dominant-negative ToxR assay was used to study heterotypic interactions of the cell-surface TLRs. Two TLR TMDs were encoded in the FHK12 E.coli reporter strain, one with a functional ToxR domain (dominant phenotype) and one with a nonfunctional ToxR* domain (negative phenotype). Interaction between the two different TMDs leads to a reduction in signal from that seen for homotypic interactions. The TMDs for GpA, TLR1, TLR2, and TLR6 were used with the functional ToxR domain while TMDs for poly-Leucine, TMD5, integrin αIIb, TLR1, TLR2, TLR4, TLR5, TLR6, and TLR10 were used with the nonfunctional ToxR* domain. Interactions were most prominent for the TLRs known to have heterotypic interactions – TLR2-TLR1 and TLR2-TLR6. […] We also saw interaction with the same TMD further validating the homotypic interactions. […] Each dominant phenotype was done in 3 technical replicates with each negative phenotype and >6 measurements made for each replicate. Error bars depict the standard error of the mean (n- Tables S3, S5, S7, S9). Western blots staining for MBP were performed to monitor expression levels of the constructs with the upper band being functional ToxR chimeras and the lower band being nonfunctional ToxR* chimeras – (B) GpA, (C) TLR1, (D) TLR2, and (E) TLR6. Significant differences for the same dominant phenotype were determined by use of the Tukey-Kramer test.
(§3) For heterotypic interactions one plasmid containing a functional ToxR domain (200 ng) and a second plasmid containing a non-functional ToxR* domain (200 ng) were co-transformed into chemically competent FHK12 E. coli (400 µL) by incubating on ice for 30 min, heat shock at 42°C for 90 s, incubation on ice for 2 min, and addition of SOC media (1600 µL) followed by incubation with shaking for 1 h at 37°C. This transformation mixture (50 µL) was then used to spread LB-agar plates containing cholaramphenicol (30 µg/mL), kanamycin (33 µg/mL), and ampicillin (100 µg/mL) and grown overnight at 37°C. Single colonies were selected from the plates and grown in 5 mL LB media containing cholaramphenicol (30 µg/mL), kanamycin (33 µg/mL), ampicillin (100 µg/mL), and arabinose (0.0025%) overnight (16–20 h) with shaking at 37°C. Analysis of activity was monitored as described in homotypic ToxR assays. Western blotting was done in the same manner as the homotypic ToxR assay with one band appearing for the functional ToxR construct and a second band for the nonfunctional ToxR* construct. Data were normalized to poly-Leu* Miller Units and corrected for varying protein expression levels using ImageJ (NIH) as previously reported.

Experiment [2] relates to GpA TMD (functional ToxR chimera). The experiment is described as follows: Dominant-negative (heterotypic) ToxR assay, GpA as dominant phenotype. The conditions noted are these: Miller units normalized to poly-Leu* = 1 and corrected for expression, lower = stronger interaction, N in table. In kind it is cell-based.
Excerpt: as §1, §2, §3

Experiment [3] deals with TLR2 TMD (functional ToxR chimera). The experiment is described as follows: Dominant-negative (heterotypic) ToxR assay, TLR2 as dominant phenotype. In kind it is cell-based. Particulars: Miller units normalized to poly-Leu* = 1 and corrected for expression, lower = stronger interaction, N in table.
Excerpt: as §1, §2, §3

Experiment [4] has as its system TLR1 TMD (functional ToxR chimera). Put plainly: Dominant-negative (heterotypic) ToxR assay, TLR1 as dominant phenotype. Particulars: Miller units normalized to poly-Leu* = 1 and corrected for expression, lower = stronger interaction, N in table. In kind it is cell-based.
Excerpt: as §1, §2, §3

The test system of experiment [5] is homotypic TMD-TMD interaction (ToxR / ctx promoter / β-galactosidase reporter in FHK12 E. coli). Put plainly: Homotypic ToxR reporter assay (β-galactosidase). Particulars: for Mean homotypic TMD interaction (ToxR): β-galactosidase Miller units normalized to GpA signal and expression levels, FHK12 E. coli, 3 replicates with >6 measurements each, N in table. Format: cell-based. How it is done: . Various plasmid constructs for this assay make it possible to monitor both homotypic and heterotypic interactions that are driven by TMD-TMD association (Fig. S1).
We first investigated homotypic interactions because the majority of the TLR family members function as homodimers. […] This ΔTM construct consists of the same maltose binding protein and ToxR domain, but lacks a TMD for proper membrane insertion (Fig. S2). Statistical analysis using the Tukey-Kramer test was performed to analyze any significant differences between all possible pairs of average interaction potentials (Table S2). […] Among the TLRs, no discernable differences in grouping based on statistical analysis at p = 0.05 were indicated as all receptors belonged to multiple groups, except for TLR1, which with the lowest interaction potential among the family of receptors only existed in one group (Table S1).
Figure 2 Toll-like Receptor Transmembrane Domain Homotypic Interactions. (A) The ToxR assay was used to study homotypic interactions of the TLR TMDs. A chimeric protein expressing the TMD of interest was monitored through β-galactosidase activity. In all cases, we saw that the TLRs have interaction potential solely from TMD-TMD interactions. Each TLR TMD interaction measurement analysis was performed on 3 technical replicates with >6 measurements for each replicate. Error bars depict the standard error of the mean (n – Table S1). Western blots staining for MBP were performed to monitor expression levels of the constructs – (B) chimeric maltose binding protein expression, (C) endogenous maltose binding protein expression. All samples were normalized to the GpA signal and expression levels.
Briefly, the ToxR plasmids containing the TMD of interest (200 ng) were transformed into chemically competent FHK12 E. coli (200 µL) by incubating on ice for 30 min, heat shock at 42°C for 90 s, incubation on ice for 2 min, and addition of SOC media (800 µL) followed by incubation with shaking for 1 h at 37°C. This transformation mixture (50 µL) was then spread on LB agar plates containing cholaramphenicol (30 µg/mL) and ampicillin (100 µg/mL) and grown overnight at 37°C. Single colonies were selected from the plates in triplicate and added to 5 mL of LB media containing cholaramphenicol (30 µg/mL), ampicillin (100 µg/mL), and arabinose (0.0025%). These cultures were incubated overnight (16–20 h) with shaking at 37°C. The β-galactosidase activity was monitored using a Beckman Coulter DTX 880 plate-reader. First 5 µL of each culture was plated >6 times in a clear 96-well flat bottom culture plate (Sarstedt) containing 100 µL of Z-buffer/chloroform (1% β-mercaptoethanol, 10% chloroform, 89% Z buffer: […], 10 mM potassium chloride, 1 mM magnesium sulfate, pH 7.0). The cell densities of each well were recorded by measuring the OD595. Bacteria were lysed by the addition of 50 µL Z-buffer/SDS (1.6% sodium dodecyl sulfate w/v in Z-buffer) and shaking at 28°C for 10 min. Enzymatic activity was measured by adding 50 µL of Z-buffer/ortho-Nitrophenyl-β-[…] (ONPG) (0.4% ONPG w/v in Z-buffer) and monitoring the reaction at 405 nm for a period of 20 min at 30 s intervals. Miller units were calculated using the equation: [drawing 1]
Western blotting was performed with antiserum recognizing the maltose-binding protein moiety of the constructs (Abcam). Data were normalized to GpA Miller Units and protein expression levels using ImageJ (NIH) as reported previously.
A general note: Reporter assays use an easily measured gene product as a stand-in for the process of interest.

As to “GNRASWVLV G VLG G LLLLTILVLAMWGSLIN [Integrin*, Integrin αIIb TMD fused to nonfunctional ToxR* domain, unrelated receptor, reference compound]”, in experiment [1], the “Mean TLR6-TMD* heterotypic interaction (ToxR signal)” value is reported as 0.6106. For the same substance, in experiment [2], the “Mean GpA-TMD* heterotypic interaction (ToxR signal)” value is recorded as 1.0189. For the same substance, in experiment [3], the “Mean TLR2-TMD* heterotypic interaction (ToxR signal)” value was 0.7609. Moreover, the “Mean TLR1-TMD* heterotypic interaction (ToxR signal)” value in experiment [4] came out at 0.7583.
For “TLR5*: TLR5 TMD chimera with nonfunctional ToxR* domain (negative phenotype) (GNRASFSLFIVCTVTLTLFLMTILTVTGSLIN; also: fused to non-functional ToxR* (S87H) and maltose binding protein, ends not given here)”, in experiment [2], the “Mean GpA-TMD* heterotypic interaction (ToxR signal)” value came to 0.8934. For the same substance, the “Mean TLR2-TMD* heterotypic interaction (ToxR signal)” value in experiment [3] is 0.9233. Further, the “Mean TLR1-TMD* heterotypic interaction (ToxR signal)” value in experiment [4] was found to be 0.6805. Moreover, the “Mean homotypic TMD interaction (ToxR)” value in experiment [5] stood at 0.6087.
For “TLR4*: TLR4 TMD chimera with nonfunctional ToxR* domain (negative phenotype) (GNRASTIIGVSVLVVSVVAVLVYKFYFGSLIN; also: fused to non-functional ToxR* (S87H) and maltose binding protein, ends not given here)”, the “Mean TLR6-TMD* heterotypic interaction (ToxR signal)” value in experiment [1] came to 0.9610. For the same substance, the “Mean GpA-TMD* heterotypic interaction (ToxR signal)” value in experiment [2] was 1.1905. Also, the “Mean TLR2-TMD* heterotypic interaction (ToxR signal)” value in experiment [3] was 1.1386. Besides, the “Mean TLR1-TMD* heterotypic interaction (ToxR signal)” value in experiment [4] was 0.8709. In experiment [5], the “Mean homotypic TMD interaction (ToxR)” value was 0.5620.
“TLR2 G593V (GNRASALVSVMCCALFLLILLTGVLCGSLIN; cysteine pairing not given here; also: fused to maltose-binding protein and ToxR activation domain, ends not given here)”: the “Effect of TLR2 point mutation on homotypic interaction” value in experiment [5] (homotypic ToxR assay, compared with wild type TLR2 TMD (Fig. 7A)) is given as “no mutation demonstrated significant difference from the wild type TLR2 TMD”.
In the case of “GNRASLFFMINTSILLIFIFIVLLIHFGSLIN [TLR3 TMD]”, in experiment [5], the “Mean homotypic TMD interaction (ToxR)” value stood at 0.8032.
As to “GNRASFALSLL A V A L G L G VPMLHHLGSLIN [TLR9 TMD]”, in experiment [5], the “Mean homotypic TMD interaction (ToxR)” value turned out to be 0.7992.
In the case of “GNRASWQLLAFFLAFFLDLILLIIALYLGSLIN [TMD5*, TMD5 of latent membrane protein 1 fused to nonfunctional ToxR* domain, unrelated receptor, reference compound]”, the “Mean TLR6-TMD* heterotypic interaction (ToxR signal)” value in experiment [1] was 1.1235. In addition, the “Mean GpA-TMD* heterotypic interaction (ToxR signal)” value in experiment [2] turned out to be 1.1703. The “Mean TLR2-TMD* heterotypic interaction (ToxR signal)” value in experiment [3] amounted to 1.1904. Also, the “Mean TLR1-TMD* heterotypic interaction (ToxR signal)” value in experiment [4] is 1.0921.
“TLR10*: TLR10 TMD chimera with nonfunctional ToxR* domain (negative phenotype) (GNRASALLIVTIVVIMLVLGLAVAFCCLGSLIN; cysteine pairing not given here; also: fused to non-functional ToxR* (S87H) and maltose binding protein, ends not given here)”: in experiment [1], the “Mean TLR6-TMD* heterotypic interaction (ToxR signal)” value came to 0.3445. In experiment [2], the “Mean GpA-TMD* heterotypic interaction (ToxR signal)” value is on record as 1.1244. Further, the “Mean TLR2-TMD* heterotypic interaction (ToxR signal)” value in experiment [3] is on record as 0.3877. Besides, in experiment [4], the “Mean TLR1-TMD* heterotypic interaction (ToxR signal)” value is reported as 0.3608. Also, the “Mean homotypic TMD interaction (ToxR)” value in experiment [5] worked out at 0.8259.
As for “GNRASVTAVILFFFTFFITTMVMLAALAGSLIN [TLR8 TMD]”, the “Mean homotypic TMD interaction (ToxR)” value in experiment [5] came to 0.7486.
The same measure, in the same setting: then “GNRASLILF S L S I S V S LFLMVMMTASHLGSLIN [TLR7 TMD]”, with 0.4947; and “GNRASLIIF G VMA G VIGTILGSLIN [GpA TMD, reference compound]”, with 1.0000.
